What was measured:
[1] = system: bMON14272-pE2 infected SF21 cells; assay: Baculovirus virion suppression test, end point dilution assay (Example 2); assay type: cell-based
Source text: FIG. 7: Example 2. A) Generation of composite baculovirus DNA containing expression cassettes X, Y, and Z as described in FIG. 6. Baculovirus DNA bMON14272 (left) contains expression cassette Z encoding native vp80 protein. The transfer vector pE2 (right) contains expression cassettes X and Y encoding the ecdysone activator protein and shRNA, respectively. In transfer vector pE2, direction of transcription 5′ to 3′ for expression cassettes X and Y is indicated by arrows. Promoter sequences pe38 for ecdysone activator and ie-2 minimal for shRNA are indicated as are the DNA binding sites for ecdysone activator protein. Fusion of the transfer vector pE2 and bMON14272 is carried out by Tn7 transposition (indicated by the dashed cross). B) Comparison of budded infectious virus production from inducible bMON14272-pE2 (left) and non-inducible bMON14272-pDual (right) in the presence and absence of inducer molecule RG-102240. Baculovirus infected SF21 cells are incubated for 72 hours in the presence, or absence of 0.5 μM RG-102240 (indicated by + or −, bottom). […] S.E.M of three measurements is indicated by dark bars on the top of the graphs.
Other algorithms may be analogously used. […] Expression cassette Y is under control of the ie2 minimal promoter (Protein Expression and Purification 42, 236-245).
Baculovirus virion suppression tests are carried out as follows. 10 milliliters of SF21 cells in suspension culture (Nature Methods 3, 1021-1032) at density 0.5×10^6 cells/ml are infected at multiplicity of infection (M.O.I) of 1.0 with either bMON14272-pE2 or bMON14272-pFastbac Dual initial transfection virus either in the presence, or absence of 0.5 μM RG-102240 (FIG. 7B). […]
(§1) Quantification of effectiveness of RG-102240-mediated suppression of generation of baculovirus virion through shRNA targeting of the essential virus capsid protein vp80 as described above is carried out by comparing the results of the end point dilution assay with and without RG-102240-mediated expression of shRNA. […]

[2] = system: bMON14272-pFastbac Dual infected SF21 cells; assay: Baculovirus virion suppression test, end point dilution assay, negative control virus (Example 2); assay type: cell-based; conditions: addition of 0.5 μM RG-102240, SF21 cells, 72 hours, FIG. 7B right
Source text: FIG. 7: Example 2. A) Generation of composite baculovirus DNA containing expression cassettes X, Y, and Z as described in FIG. 6. Baculovirus DNA bMON14272 (left) contains expression cassette Z encoding native vp80 protein. The transfer vector pE2 (right) contains expression cassettes X and Y encoding the ecdysone activator protein and shRNA, respectively. In transfer vector pE2, direction of transcription 5′ to 3′ for expression cassettes X and Y is indicated by arrows. Promoter sequences pe38 for ecdysone activator and ie-2 minimal for shRNA are indicated as are the DNA binding sites for ecdysone activator protein. Fusion of the transfer vector pE2 and bMON14272 is carried out by Tn7 transposition (indicated by the dashed cross). B) Comparison of budded infectious virus production from inducible bMON14272-pE2 (left) and non-inducible bMON14272-pDual (right) in the presence and absence of inducer molecule RG-102240. Baculovirus infected SF21 cells are incubated for 72 hours in the presence, or absence of 0.5 μM RG-102240 (indicated by + or −, bottom). […]
as §1

[3] = induced with 0.5 μM RG-102240, SF21 cells, 72 hours

CCc1c(OC)cccc1C(=O)NN(C(=O)c1cc(C)cc(C)c1)C(C)(C)C [RG-102240]
reduction of virus titers relative to prior art systems (bMON14272-pFastbac Dual) [1, 3]: more than three fold | reduction of virus titers relative to uninduced bMON14272-pE2 [1, 3]: more than three fold | levels of budded virus production (infectious virus titre) ([1]; presence vs absence of 0.5 μM RG-102240, SF21 cells, M.O.I 1.0, 72 hours, FIG. 7B left): significantly reduced | effect on baculovirus virion production [2]: no statistically significant effect
